This is an account of results in US5214034A, “Catechol derivatives, and preventive and remedial preparations for regressive disorders in the central nervous system containing the same” (priority 1986, dated 1993).

Read-outs that look alike come from different tables or passages of the source.

Test [1] deals with production and secretion of NGF on L-M cells. Put plainly: Promoting action for the production and secretion of NGF on L-M cells of mouse (ELISA). The format is cell-based. The settings on record: Mus musculus. The source says: Catecholamines have also been found in a relatively high concentration to accelerate these functions without being mediated by adrenergic receptors [Y. Furukawa et al., J. Biol. Chem., 261, 6039-6047 (1986)].
The compound having a high activity in Table 1, that is, the catechol derivative having a n-alkyl group in the 3 or 4 position on the ring has been observed an acute cell toxicity in higher concentrations. The toxicity was considered the result of two hydroxyl groups in the catechol structure. Then the hydroxyl groups were esterified or etherified and the resulting derivative was examined the effect on the activity for the production and secretion of NGF.
The experiment was performed according to the procedures of Y. Furukawa et al. which is described in J. Bis Chem., 261, 6039-6047 (1986).
The medium was cultured for 3 days at a temperature of 37° C. After completing the confluency (about 10^6 cells/well), the medium was changed to Medium 199 (0.5 ml/well) containing 0.5% bovine serum albumin (Fraction V, a product of Armour Co.). The sample of the derivative is contained in the medium at a prescribed concentration as illustrated in the Tables.
(In general: ELISA stands for enzyme-linked immunosorbent assay.)

Test [2] has as its system production and secretion of NGF in brain astroglial cells. Put plainly: Promoting activity for the production and secretion of NGF in brain astroglial cells of mouse (ELISA). As for the experimental part:
The experiment was performed by inducing the astroglial cells from mouse forebrain to culture system according to the procedures of S. Furukawa et al. which is described in Biochem. Biophys. Res. Commun., 136, 57-63 (1986).
That is, forebrains of 8-day old mice were dissected out and cut into small pieces. […] Cells and cell clamps were recovered by centrifugation at 200 xg for 5 minutes. They were cultured in Dulbecco modified Eagle's medium (a product of Gibco Co. hereinafter abbreviated as DMEM) containing 10% of fetal calf serum, […] of penicillin, and 50 μg/ml of streptomycin, for 10 to 14 days with medium changes every 3 days. After completing confluency, the cells were dissociated by trypsin treatment and recultured in new culture flasks. This procedure was repeated further twice and more. […] The cells will hereinafter be referred to as astroglial cells.
Astroglial cells were innoculated in 24-well plates having a well surface area of 2.1 cm^2 (a product of Falcon Co.) at a cell density of about 3×10^4 cells/well and cultured for 3 days in DMEM . medium supplemented with 10% of fetal calf serum. After completing confluency about 10^7 cells/well), the medium was changed to DMEM medium (0.5 ml/well) supplemented with 0.5% of bovine serum albumin ((fraction V) and cultured for 3 days. The culture was further continued with medium changes every 3 days. After cells were practically synchronized in the quiscent stage, the medium was changed to 0.5 ml of the medium supplemented with 0.5% of bovine serum albumin and containing a prescribed concentration of test sample as illustrated in Tables. […] Data are expressed as fold increase in NGF content over that in the absence of the test sample. […] Data are presented as means ±SE of four determinations.

Setting [3] is: 24 h, Table 2, 0.03 mM, 24-hr culture, read-out: Ratio of NGF increase, 24-hr culture.
Where [4] appears, read: 24 h, Table 2, 0.15 mM, 24-hr culture, read-out: Ratio of NGF increase, 24-hr culture.
Setting [5] is: 48 h, Table 2, 0.03 mM, 48-hr culture, read-out: Ratio of NGF increase, 48-hr culture.
Where [6] appears, read: 48 h, Table 2, 0.15 mM, 48-hr culture, read-out: Ratio of NGF increase, 48-hr culture.
Where [7] appears, read: 24 h, read-out: Ratio of NGF increase, 24-hr culture, Table 4, 0.10 mM, 24-hr culture.
[8] abbreviates: 24 h, read-out: Ratio of NGF increase, 24-hr culture, Table 4, 0.25 mM, 24-hr culture.
[9] abbreviates: 48 h, read-out: Ratio of NGF increase, 48-hr culture, Table 4, 0.10 mM, 48-hr culture.
Setting [10] is: 48 h, read-out: Ratio of NGF increase, 48-hr culture, Table 4, 0.25 mM, 48-hr culture.
Where [11] appears, read: 24 h, read-out: Ratio of NGF increase, Table 3, 0.10 mM, 24 hours, mean ± SE of four determinations.
Setting [12] is: 24 h, read-out: Ratio of NGF increase, Table 3, 0.25 mM, 24 hours, mean ± SE of four determinations.
[13] abbreviates: 24 h, Table 1, 0.03 mM, 24 hours, mean ± SE of four determinations, read-out: Ratio of NGF increase.
Setting [14] is: 24 h, Table 1, 0.10 mM, 24 hours, mean ± SE of four determinations, read-out: Ratio of NGF increase.
Setting [15] is: 24 h, read-out: Ratio of NGF increase.
Where [16] appears, read: 24 h, read-out: Ratio of NGF increase, 24-hr culture.
The mark [17] stands for this setting: 48 h, read-out: Ratio of NGF increase, 48-hr culture.

In the case of `COc1ccc(C)cc1O` [4-Methylguaiacol, reference compound], the fold induction at 30 µM in test [1] (setting [3]) turned out to be 1.09 ± 0.06; in test [1] (setting [5]), 1.1 ± 0.07. In addition, the fold induction at 150 µM is 1.03 ± 0.05 in test [1] (setting [4]) and 1 ± 0.09 in test [1] (setting [6]).
For `Cc1ccc2c(c1)OC(C)(C)O2` [C(CH3)2 -, R1 = H, R2 = Methyl, 5,2,2-trimethyl-1,3-benzodioxol], the fold induction at 100 µM in test [2] (setting [7]) amounted to 28.6 ± 2.23; in test [2] (setting [9]) it was 41.6 ± 2.21. The fold induction at 250 µM in test [2] (setting [8]) was 33.7 ± 2.09; in test [2] (setting [10]), 55.2 ± 4.42. In addition, the fold induction at 30 µM in test [1] (setting [3]) worked out at 1.35 ± 0.12; in test [1] (setting [5]) it was 4.33 ± 1.05. Besides, the fold induction at 150 µM in test [1] (setting [4]) worked out at 1.22 ± 0.08; in test [1] (setting [6]), 3.86 ± 0.84.
As for `Cc1ccc2oc(=O)oc2c1` [CO-, R1 = H, R2 = Methyl, 4-methyl-o-phenylenecarbonate], the values for the fold induction at 100 µM in test [2] (setting [7]) and in test [2] (setting [9]) were 52.4 ± 5.29 and 73.4 ± 4.25, respectively. The fold induction at 250 µM is 44.9 ± 4.25 in test [2] (setting [8]) and 78.3 ± 6.5 in test [2] (setting [10]). Besides, the fold induction at 30 µM in test [1] (setting [3]) was found to be 4.39 ± 0.62; in test [1] (setting [5]), 7.54 ± 0.72. Further, the fold induction at 150 µM in test [1] (setting [4]) came out at 4.82 ± 0.55; in test [1] (setting [6]), 6.99 ± 0.52.
Regarding `Cc1ccc2oc(=O)c(=O)oc2c1` [CO.CO-, R1 = H, R2 = Methyl, 6-methyl-1,4-benzodioxine-2,3-dione], the fold induction at 100 µM in test [2] (setting [7]) turned out to be 47.2 ± 3.98; in test [2] (setting [9]), 69.6 ± 3.25. Besides, the results for the fold induction at 250 µM in test [2] (setting [8]) and in test [2] (setting [10]) were 50.6 ± 4.74 and 70.2 ± 5.37, respectively. Besides, the results for the fold induction at 30 µM in test [1] (setting [3]) and in test [1] (setting [5]) were 4.24 ± 0.58 and 7.6 ± 0.43, respectively. The fold induction at 150 µM in test [1] (setting [4]) turned out to be 4.62 ± 0.61; in test [1] (setting [6]) it was 7.03 ± 0.69.
Take `CCc1ccc(O)c(O)c1CC` [R = Two H, R1 = Ethyl, R2 = Ethyl]: the results for the fold induction at 100 µM in test [2] (setting [11]) and in test [1] (setting [14]) were 16.7 ± 1.84 and 3.24 ± 0.19, respectively. In test [2] (setting [12]), the fold induction at 250 µM was 23.6 ± 1.9. Also, the fold induction at 30 µM in test [1] (setting [13]) stood at 3.01 ± 0.2.
On to `CCc1cccc(O)c1O` [R = Two H, R1 = Ethyl, R2 = H], for which, in test [2] (setting [15]), the fold induction at 100 µM came to 46.2 ± 3.97 and the fold induction at 250 µM was 62.8 ± 4.42. In addition, in test [1] (setting [15]), the fold induction at 30 µM was determined as 9.76 ± 1.4 and the fold induction at 100 µM was 11.7 ± 2.13.
In the case of `Oc1ccccc1O` [R = Two H, R1 = H, R2 = H, Catechol], in test [2] (setting [15]), the fold induction at 100 µM was found to be 2.51 ± 0.07 and the fold induction at 250 µM turned out to be 1.92 ± 0.09. Also, in test [1] (setting [15]), the fold induction at 30 µM was 1.03 ± 0.04 and the fold induction at 100 µM amounted to 1.81 ± 0.09. For the same compound, in test [1] (setting [16]), the fold induction at 30 µM is 1.15 ± 0.04 and the fold induction at 150 µM worked out at 1.93 ± 0.12. Besides, in test [1] (setting [17]), the fold induction at 30 µM is 1.31 ± 0.09 and the fold induction at 150 µM stood at 1.79 ± 0.2.
Regarding `CC(C)c1ccc(O)c(O)c1` [R = Two H, R1 = H, R2 = Isopropyl], the fold induction at 100 µM was found to be 34.6 ± 1.62 in test [2] (setting [11]) and 5.9 ± 0.41 in test [1] (setting [14]). Moreover, the fold induction at 250 µM in test [2] (setting [12]) amounted to 42.9 ± 2.93. Besides, in test [1] (setting [13]), the fold induction at 30 µM was 6.17 ± 0.44.
In the case of `CCCCCc1ccc(O)c(O)c1` [R = Two H, R1 = H, R2 = n-Pentyl], the fold induction at 100 µM in test [2] (setting [11]) came out at 43.8 ± 4.71; in test [1] (setting [14]), 10.2 ± 0.71. In addition, the fold induction at 250 µM in test [2] (setting [12]) was 61 ± 5.82. Also, the fold induction at 30 µM in test [1] (setting [13]) worked out at 6.37 ± 0.25.
`CCC(C)c1ccc(O)c(O)c1` (centres unmarked) [R = Two H, R1 = H, R2 = sec-Butyl]: the figures for the fold induction at 100 µM in test [2] (setting [11]) and in test [1] (setting [14]) were 36.3 ± 3.49 and 14.7 ± 1.87, respectively. In test [2] (setting [12]), the fold induction at 250 µM is 70.1 ± 5.75. In test [1] (setting [13]), the fold induction at 30 µM is 9.23 ± 1.41.
As for `CC(C)(C)c1ccc(O)c(O)c1` [R = Two H, R1 = H, R2 = tert-Butyl], in test [2] (setting [11]), the fold induction at 100 µM came to 18.5 ± 1.5. For the same compound, the fold induction at 250 µM in test [2] (setting [12]) came out at 18.8 ± 2.92. Also, the fold induction at 30 µM in test [1] (setting [13]) came to 3.45 ± 0.35.
